Assays:
[1] = tested on: barnyardgrass; assay: Test Example 3: paddy pot test, application under submerged conditions; assay type: in vivo, Echinochloa crus-galli L.; details: submerged application at 0.5 leaf stage, visually observed 14 days after application, 0 = non-treated, 100 = complete kill
Description: (§1) Paddy field soil was put into a 1/1,000,000 ha pot, and seed of barnyardgrass and japanese bulrush were sown and slightly covered with soil. Then, the pot was left to stand still in a greenhouse in a state where the depth of flooding water was from 0.5 to 1 cm, and one day or two days later, tubers of japanese ribbon wapato were planted. Thereafter, the depth of flooding water was maintained at a level of from 3 to 4 cm, and when barnyardgrass and japanese bulrush reached a 0.5 leaf stage and japanese ribbon wapato reached a primary leaf stage, an aqueous diluted solution of a wettable powder or emulsifiable concentrate having the compound of the present invention formulated in accordance with a usual formulation method, was uniformly applied under submerged conditions by a pipette so that the dose of the active ingredient would be at a predetermined level. On the 14 days after the application of the herbicide, the growth of barnyard grass, japanese burlrush and japanese ribbon wapato was visually observed and on the 21st day after the application of the herbicide, the growth of rice was visually observed, and the herbicidal effects were evaluated by the growth-controlling degrees (%) ranging from 0 (equivalent to the non-treated plot) to 100 (complete kill), whereby the results shown in Table 5 were obtained.

[2] = tested on: japanese bulrush; assay: as above; assay type: in vivo, Scirpus juncoides; details: submerged application at 0.5 leaf stage, visually observed 14 days after application, 0 = non-treated, 100 = complete kill
Description: as §1

[3] = tested on: japanese ribbon wapato; assay: as above; assay type: in vivo, Sagittaria pygniaea; details: submerged application at primary leaf stage, visually observed 14 days after application, 0 = non-treated, 100 = complete kill
Description: as §1

[4] = tested on: rice (var. Nihonbare); assay: Test Example 3: paddy pot test, transplanted rice; assay type: in vivo, Oryza sativa L.; details: applied 4th day after transplantation, visually observed 21st day after application, 0 = non-treated, 100 = complete kill
Description: as §1, with “On the other hand, paddy field soil was put into a 1/1,000,000 ha pot and puddled and leveled, and the depth of flooding water was from 3 to 4 cm. Next day, rice (var. Nihonbare) of 2 leaf stage was transplanted in a depth of 3 cm. On the 4th day after the transplantation, the compound of the present invention was applied in the same manner as described above. On the 14 days” for “On the 14 days”

Structure (SMILES)	Growth controlling degree (%) Barnyardgrass ([1]; active ingredient 250 g/ha) [%]	Growth controlling degree (%) Japanese bulrush ([2]; active ingredient 250 g/ha) [%]	Growth controlling degree (%) Rice ([4]; active ingredient 250 g/ha) [%]	Growth controlling degree (%) Barnyardgrass ([1]; active ingredient 500 g/ha) [%]	Growth controlling degree (%) Japanese bulrush ([2]; active ingredient 500 g/ha) [%]	Growth controlling degree (%) Rice ([4]; active ingredient 500 g/ha) [%]	other results
CC(C)C(c1cnccc1C(F)(F)F)N(C)C(=O)Cc1cc(Cl)cc(Cl)c1 (stereo not shown) [I-91]	90	20	0	–	–	–	Growth controlling degree (%) Japanese ribbon wapato ([3]; active ingredient 250 g/ha): 20%
CCN(C(=O)Cc1cccc(F)c1F)C(c1cnccc1C(F)(F)F)C(C)C (stereo not shown) [I-77]	98	95	0	–	–	–	Growth controlling degree (%) Japanese ribbon wapato ([3]; active ingredient 250 g/ha): 40%
CCN(C(=O)N(C)C(c1cnccc1C(F)(F)F)C(C)C)c1ccccc1 (stereo not shown) [I-233]	–	–	–	95	90	10	Growth controlling degree (%) Japanese ribbon wapato ([3]; active ingredient 500 g/ha): 40%
CC(C)C(NC(=O)c1ccccc1)c1cnccc1C(F)(F)F (racemic) [I-115]	–	–	–	70	40	20	Growth controlling degree (%) Japanese ribbon wapato ([3]; active ingredient 500 g/ha): 20%
Cc1ccc(F)c(CC(=O)N(C)C(c2cnccc2C(F)(F)F)C(C)C)c1 (stereo not shown) [I-108]	98	100	10	–	–	–	Growth controlling degree (%) Japanese ribbon wapato ([3]; active ingredient 250 g/ha): 60%
CC(C)C(c1cnccc1C(F)(F)F)N(C)S(=O)(=O)c1ccc(C(C)(C)C)cc1 (stereo not shown) [I-145]	100	0	20	–	–	–	–
CC(Oc1ccc(F)cc1F)C(=O)N(C)C(c1cnccc1C(F)(F)F)C(C)C (mixture of isomers) [I-138]	98	100	10	–	–	–	–
CC(C)C(c1cnccc1C(F)(F)F)N(C)C(=O)OCc1ccccc1 (racemic) [I-111]	90	10	0	–	–	–	–
CC(C)C(c1cnccc1Cl)N(C)C(=O)Cc1ccc2ccccc2c1 (stereo not shown) [I-59]	–	–	–	90	10	10	Growth controlling degree (%) Japanese ribbon wapato ([3]; active ingredient 500 g/ha): 60%
COc1ccc(S(=O)(=O)N(C)C(c2cnccc2C(F)(F)F)C(C)C)cc1 (stereo not shown) [I-144]	100	98	20	–	–	–	–
CC(Sc1ccc(Cl)cc1)C(=O)N(C)C(c1cnccc1C(F)(F)F)C(C)C (mixture of isomers) [I-141]	100	98	20	–	–	–	–
CC(C)C(c1cnccc1C(F)(F)F)N(C)C(=O)C=Cc1cccc(Br)c1 (stereo not shown) [I-179]	–	–	–	90	90	10	Growth controlling degree (%) Japanese ribbon wapato ([3]; active ingredient 500 g/ha): 30%
CC(C)C(c1cnccc1C(F)(F)F)N(C)C(=O)Cc1cccc2ccccc12 (stereo not shown) [I-56]	–	–	–	95	70	20	Growth controlling degree (%) Japanese ribbon wapato ([3]; active ingredient 500 g/ha): 90%
Cc1cc(F)ccc1CC(=O)N(C)C(c1cnccc1C(F)(F)F)C(C)C (racemic) [I-116]	–	–	–	100	95	10	Growth controlling degree (%) Japanese ribbon wapato ([3]; active ingredient 500 g/ha): 50%
CC(C)C(c1cnccc1C(F)(F)F)N(C)C(=O)C=Cc1ccc(Cl)cc1 (stereo not shown) [I-171]	60	98	0	–	–	–	Growth controlling degree (%) Japanese ribbon wapato ([3]; active ingredient 250 g/ha): 0%
CSc1ccc(CC(=O)N(C)C(c2cnccc2C(F)(F)F)C(C)C)cc1 (stereo not shown) [I-37]	100	50	0	–	–	–	Growth controlling degree (%) Japanese ribbon wapato ([3]; active ingredient 250 g/ha): 10%
CCN(C(=O)Cc1ccccc1F)C(c1cnccc1C(F)(F)F)C(C)C (stereo not shown) [I-78]	100	70	20	–	–	–	Growth controlling degree (%) Japanese ribbon wapato ([3]; active ingredient 250 g/ha): 40%
CC(C)C(c1cnccc1C(F)(F)F)N(C)C(=O)Cc1ccc(-c2ccccc2)cc1 (stereo not shown) [I-9]	–	–	–	100	10	0	Growth controlling degree (%) Japanese ribbon wapato ([3]; active ingredient 500 g/ha): 30%
Cc1cccc(CC(=O)N(C)C(c2cnccc2Cl)C(C)C)c1 (stereo not shown) [I-88]	100	70	0	–	–	–	Growth controlling degree (%) Japanese ribbon wapato ([3]; active ingredient 250 g/ha): 50%
CC(C)C(c1cnccc1Cl)N(C)C(=O)Cc1ccc(F)cc1F (stereo not shown) [I-71]	–	–	–	–	–	–	Growth controlling degree (%) Barnyardgrass ([1]; active ingredient 125 g/ha): 90%; Growth controlling degree (%) Japanese bulrush ([2]; active ingredient 125 g/ha): 90%; Growth controlling degree (%) Japanese ribbon wapato ([3]; active ingredient 125 g/ha): 40%; Growth controlling degree (%) Rice ([4]; active ingredient 125 g/ha): 0%
CC(=CC(=O)N(C)C(c1cnccc1C(F)(F)F)C(C)C)c1ccccc1 (stereo not shown) [I-174]	10	95	0	–	–	–	Growth controlling degree (%) Japanese ribbon wapato ([3]; active ingredient 250 g/ha): 0%
CC(C)C(c1ccc(C(F)(F)F)nc1)N(C)C(=O)Cc1ccccc1 (racemic) [I-123]	–	–	–	70	10	10	–
CCCC(=O)NC(c1cnccc1C(F)(F)F)c1cccc2ccccc12 (stereo not shown) [I-49]	–	–	–	90	85	10	–
CCN(C(=O)Cc1ccccc1)C(c1cnccc1C(F)(F)F)C(C)C (stereo not shown) [I-24]	–	–	–	–	95	40	Growth controlling degree (%) Japanese ribbon wapato ([3]; active ingredient 500 g/ha): 100%
CC(Sc1ccccc1)C(=O)N(C)C(c1cnccc1C(F)(F)F)C(C)C (mixture of isomers) [I-140]	98	98	0	–	–	–	–
C=CCCC(=O)N(C)C(c1cnccc1C(F)(F)F)C(C)C (stereo not shown) [I-211]	100	98	50	–	–	–	–
CC(C)C(c1cnccc1C(F)(F)F)N(C)C(=O)C(F)(F)c1ccccc1 (stereo not shown) [I-143]	98	98	10	–	–	–	–
CC(Oc1ccc(Cl)cc1)C(=O)N(C)C(c1cnccc1C(F)(F)F)C(C)C (mixture of isomers) [I-139]	98	98	10	–	–	–	–
CCCC(=O)N(C)C(c1cnccc1C(F)(F)F)c1cccc2ccccc12 (stereo not shown) [I-50]	–	–	–	95	95	10	–
CC(C)C(c1cnccc1C(F)(F)F)N(C)S(=O)(=O)C=Cc1ccc(Cl)cc1 (stereo not shown) [I-142]	100	60	10	–	–	–	–

— patent US20050239656A1, “Pyridine compounds or salts thereof and herbicides containing the same” (priority 2002, published 2005)
